Key:
[1] = tested on: Reserpine-induced fibromyalgia rat model; assay: Reserpine-induced fibromyalgia rat model: pain (von Frey test); format: in vivo; conditions: gabapentin 50 mg/kg IP QD; Example 2 3, 10, 30 mg/kg PO QD; days 1, 2, 4, 6
Procedure: Reserpine-induced fibromyalgia model generation and drug administration were carried out on 6-week-old male SD rats divided into 6 groups as shown in Table 15 below: control group (G1), reserpine+delivery (G2), reserpine+gabapentin 50 mg/kg (G3), reserpine+Example 2 3 mg/kg (G4), 10 mg/kg (G5), and 30 mg/kg (G6). To create a rat fibromyalgia model, reserpine (Sigma-aldrich, 1 mg/kg) dissolved in 0.5% acetic acid was administered subcutaneously once for 3 days from 3 days before the start of the experiment. Beginning on Day 1, the once-daily (QD) delivery body, gabapentin, and embodiment 2 were administered intraperitoneally (IP) or orally (PO) 2 hours before the experiment was performed.
The right hind foot tactile response test (von Frey test) was performed 5 times (before the fibromyalgia model, and on the 1st, 2nd, 4th and 6th days after the model was generated). Before all behavioral tests, rats were accustomed to the environment for 30 minutes, and all experimenters performing behavioral tests were made blind to drug administration information. Before model generation, baseline measurements were performed by performing the von Frey test on all rats. The rat was placed on a wired mesh and placed in a transparent plastic box (20×20×14 cm), and the foot withdrawal threshold was measured by applying a von Frey filament (ascending weight: 0.4, 0.6, 1.4, 2, 4, 6, 8, and 15 g, North Coast) to the middle of the right hind foot to assess foot allodynia.

[2] = tested on: MPTP-induced PD mouse model; assay: MPTP-induced PD mouse model: TH staining of striatum and substantia nigra; format: in vivo; conditions: PO QD Day 1-7; Nilotinib 40 mg/kg, Example 3 2/10/50 mg/kg, Example 2 50 mg/kg; vs MPTP group G2
Procedure: Mice at 7 weeks of age were divided into 7 groups as shown in Table 9 below to generate an acute MPTP model and proceed with drug administration: control group+vehicle (G1), MPTP+vehicle (G2), MPTP+Nilotinib 40 mg/kg (G3), MPTP+Example 3 2 mg/kg (G4), MPTP+Example 3 10 mg/kg (G5), MPTP+Example 3 50 mg/kg (G6), and MPTP+Example 2 50 mg/kg (G7). The test drug was administered orally (PO) at 10 ml/kg once daily (QD) from Day 1 to Day 7. The acute MPTP model will be performed at 2-hour intervals in all groups except the control group. […] was administered as intraperitoneal (IP) injection for 4 doses. The control group was given the same amount of 0.9% saline. The Pole test was performed on day 4 (after training on day 2 and day 3). On day 7, all mice were euthanized, and their brains were harvested.
Mice were euthanized with Zoletil administration for collection of tissue samples for staining and analysis of histological sections. Blood was collected from the heart of the mouse and then the residual blood was perfused with phosphate-buffered saline (PBS). For half of the mice (n=6/group), the brain was incised into the striatum, substantia nigra, and the rest of the brain, flash-frozen, and stored at −80° C. The remaining mice (n=6/group) had their brains isolated and immobilized in 4% paraformaldehyde for 24 hours at 4° C., followed by 30% sucrose in phosphate-buffered saline (PBS) containing 0.02% sodium azide and stored at 4° C. for 3 days. Immunohistochemical sections were performed on brain samples embedded with optimal cutting temperature (OCT) compounds. Samples were sectioned to a thickness of 20 μm using Leica CM1950 (Leica Microsystems, Germany) and stored at 4° C. in a preservation solution until staining with antibodies.
After staining the striatum and substantia nigra of the brain and mounting them on microscopic slides, the slides were washed with PBS containing 0.3% Triton X-100 and peroxidase block for 15 min at room temperature. The slides were washed three times with PBS containing 0.3% Triton X-100 and then blocked at RT (room temperature) for 1 hour in a solution containing PBS, 5% normal goat serum, and 0.3% Triton X-100. Tyrosine hydroxylase antibody was diluted at 1:1000 and incubated overnight at 4° C. The slides were washed with PBS solution and incubated for 1 h at RT with secondary antibody. The slides were washed with PBS solution and the sections were placed in the solution to proceed with the DAB (diaminobenzidine) reaction.
The DAB response was monitored under a microscope for 2 to 3 minutes, and the slides were washed with PBS to stop the DAB response, dehydrated, and mounted using xylene. An Olympus microscope (Olympus, SZ61, BX51) was used to visualize TH stained images. The optical density (OD) value of positive TH staining was measured in the striatum and substantia nigra and analyzed using Image J software.

[3] = tested on: CDAHFD-induced non-alcoholic steatohepatitis mouse model; assay: CDAHFD-induced non-alcoholic steatohepatitis mouse model: liver fibrosis (Picrosirius red); format: in vivo; conditions: Selonsertib 30 mg/kg, Example 3 10 and 30 mg/kg, Example 2 10 and 30 mg/kg PO QD; CDAHFD diet 4 and 8 weeks
Procedure: Creation of CDAHFD-induced NASH model and drug administration were carried out by dividing C57BL/6 male mice at 3 weeks of age into 7 groups as shown in Table 16 below. The control group (G1) was fed standard feed and water. Groups G2 to G7 were fed the CDAHFD (Research Diet Inc, #A06071302) diet for 4 and 8 weeks.
Picrosirius red staining was used for histological visualization of collagen fibers. Histopathology analysis evaluated the efficacy of improving liver fibrosis.
For mice in each group, three sections of the liver fixed with 4% PFA (paraformaldehyde) were prepared with paraffin blocks. Paraffin blocks were sectioned to a thickness of 5 μm (Histocore AUTOCUT R, Leica Microsystems, Germany) and the sections were mounted on silane-coated slides (MUTO, JPN) and stored until staining.
Xylene was used to remove paraffin from the slides, and the slides were moisturized and washed. The slides were stained with a solution of Picrosirius red (ab150681, Abcam, UK) and washed off with a solution of acetic acid. The slides were fitted after dehydration and cleaning using alcohol and xylene. For each section, two images of different areas were taken using a microscope (Axioscan7, ZEISS, Germany). The fibrotic area was measured using image J software compared to the total area. FIGS. 23a and 23b are graphs and images of Picrosirius red stained area ratios in the liver of a CDAHFD-induced mouse model of nonalcoholic steatohepatitis.

[4] = tested on: PC12 cells; assay: Neuronal protective efficacy against 6-OHDA (MTT); format: cell-based; conditions: Rattus norvegicus, PC-12, 6-OHDA 40 μM, Control = 100, read-out: cell viability (AVE)
Procedure: (§1) The neuronal toxicity substances 6-OHDA (6-hydroxydopamine hydrobromide) and MPP+ (1-methyl-4-phenylpyridinium) were purchased from Sigma-Aldrich (Saint Louis, MO, USA) and made into 100 mM DMSO stock. PC12 cells were seeded on 96-well plates with 4 pieces of 1×10 per well and incubated for one day. The cells were pretreated with each concentration of embodied compound for 1 h. Subsequently, 40 μM 6-OHDA and 2 mM MPP^+ were added and incubated for 24 hours, respectively. Subsequently, cell viability was measured using MTT (Invitrogen, MA, USA).

[5] = tested on: SH-SY5Y cells; assay: Cytoprotective effects in MPP+-induced human neurons (CCK-8); format: cell-based; conditions: MPP+ 5 mM induced cytotoxicity, cell viability by CCK-8
Procedure: SH-SY5Y cells were purchased from ATCC and cultured at 37° C. and 5% CO2 in RPMI medium containing 10% FBS and 1% penicillin and streptomycin. MPP+ was purchased from Sigma Aldrich and treated with 5 mM to induce cytotoxicity.

[6] = Distribution in the mouse brain (plasma and brain AUC); format: in vivo
Procedure: The blood-brain barrier permeability in ICR mice was confirmed by oral administration of 10 mg/kg of test material. Male […] mice were fasted for 15 h prior to administration. The test material was administered at a dose of 10 mg/kg and a volume of 5 mL/kg, and the solvent composition was N-Methyl-2-pyrrolidone (NMP), Polyethylene glycol 400 (PEG 400), and distilled water (D.W) at a volume ratio of 10:40:50(%), respectively. After administration, blood and brain tissue samples were taken by sacrificing mice with carbon dioxide inhalation at each time point corresponding to 1, 4, and 8 hours. Whole blood was collected from the abdominal vena cava, and brain samples were collected after systemic perfusion with saline to remove as much blood as possible.
The distribution ratio in mouse plasma and brain was calculated by calculating the AUC after concentration quantification in each tissue.

[7] = tested on: PC12 cells; assay: Neuronal protective efficacy against MPP+ (MTT); format: cell-based; conditions: Rattus norvegicus, PC-12, MPP 2 mM, Control = 100, read-out: cell viability (AVE)
Procedure: as §1

[8] = biological target: T1, recombinant human ASK1 protein (Homo sapiens, UniProt Q99683); assay: Evaluation of ASK1 inhibition activity ([gamma-33P]-ATP, scintillation counting); format: biochemical; conditions: 0.5 uM; activity of group without compound set at 100%; read-out: Remaining kinase activity (%) at 0.5 uM
T1 sequence (Q99683 1-1374): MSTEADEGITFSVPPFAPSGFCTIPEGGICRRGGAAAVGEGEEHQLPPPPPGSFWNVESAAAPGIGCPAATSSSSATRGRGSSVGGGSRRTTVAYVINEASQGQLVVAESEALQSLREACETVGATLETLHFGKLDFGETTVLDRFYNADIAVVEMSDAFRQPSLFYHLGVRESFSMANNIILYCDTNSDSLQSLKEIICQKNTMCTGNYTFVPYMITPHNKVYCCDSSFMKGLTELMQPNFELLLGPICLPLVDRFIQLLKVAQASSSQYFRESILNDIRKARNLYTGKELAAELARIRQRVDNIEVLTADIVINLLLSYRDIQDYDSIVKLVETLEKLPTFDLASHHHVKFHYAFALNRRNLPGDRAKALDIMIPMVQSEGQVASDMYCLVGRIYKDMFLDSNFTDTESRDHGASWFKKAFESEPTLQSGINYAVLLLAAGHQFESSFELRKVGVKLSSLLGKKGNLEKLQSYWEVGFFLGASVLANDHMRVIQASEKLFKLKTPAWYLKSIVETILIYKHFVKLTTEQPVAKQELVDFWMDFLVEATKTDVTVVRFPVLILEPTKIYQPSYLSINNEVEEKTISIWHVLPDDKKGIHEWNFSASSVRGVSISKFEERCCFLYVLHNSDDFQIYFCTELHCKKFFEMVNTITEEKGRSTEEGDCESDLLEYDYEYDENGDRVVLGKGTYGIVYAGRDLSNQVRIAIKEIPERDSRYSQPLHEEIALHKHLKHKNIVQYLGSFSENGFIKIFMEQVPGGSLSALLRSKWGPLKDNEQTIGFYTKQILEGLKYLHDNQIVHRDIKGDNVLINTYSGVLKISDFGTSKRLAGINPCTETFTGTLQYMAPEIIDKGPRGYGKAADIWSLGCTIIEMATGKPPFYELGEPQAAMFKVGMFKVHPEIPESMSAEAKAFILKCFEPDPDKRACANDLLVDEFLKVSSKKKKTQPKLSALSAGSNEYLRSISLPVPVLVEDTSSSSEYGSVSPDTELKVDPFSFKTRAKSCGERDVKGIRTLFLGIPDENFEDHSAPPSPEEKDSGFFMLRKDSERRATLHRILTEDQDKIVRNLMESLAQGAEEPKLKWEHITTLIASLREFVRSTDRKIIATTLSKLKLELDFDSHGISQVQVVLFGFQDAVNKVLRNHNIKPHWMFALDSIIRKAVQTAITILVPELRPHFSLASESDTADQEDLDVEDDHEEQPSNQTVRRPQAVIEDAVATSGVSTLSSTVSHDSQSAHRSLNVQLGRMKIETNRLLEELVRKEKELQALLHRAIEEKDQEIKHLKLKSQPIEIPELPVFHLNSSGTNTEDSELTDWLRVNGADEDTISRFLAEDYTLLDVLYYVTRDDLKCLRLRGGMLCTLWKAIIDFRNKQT
Procedure: The recombinant human ASK1 protein was initiated by adding a mixture of Mg/ATP to the reaction solution (8 mM MOPS PH 7.0, 0.2 mM EDTA, 0.33 mg/mL myelin basic protein, 10 mM Mg Acetate and [gamma-33P]-ATP), and the reaction was terminated by adding 0.5% phosphoric acid after 40 min at room temperature.

[9] = oral 10 mg/kg, samples at 1, 4, 8 hours

NCC1(CC(=O)O)CCCCC1 [Gabapentin, reference compound]
sensitivity (foot withdrawal threshold, von Frey test) [1]: gradually improved over time

Cc1cn(-c2cc(NC(=O)c3ccc(C)c(Nc4nccc(-c5cccnc5)n4)c3)cc(C(F)(F)F)c2)cn1 [Nilotinib, reference compound]
TH levels in striatum [2]: significantly higher than those in G2

Cc1cc(F)c(C(=O)Nc2cccc(-c3nncn3C(C)C)n2)cc1-n1cnc(C2CC2)c1 [Comparative Example 1, Selonsertib, reference compound]
Picrosirius red staining area in the liver [3]: significantly reduced | viability at 0.1 µM ([4]; compound 0.1 μM): 87.9% | viability at 0.3 µM ([4]; compound 0.3 μM): 89.2% | viability at 1 µM ([4]; compound 1 μM): 84.1% | EC50 [5]: 89 nM | Kp ([6]; male, brain/plasma, po, 10 mg/kg): 0.004 | Aukinf brain [6, 9]: 0.26 ± 0.03 ug*h · g. | Aukinf plasma [6, 9]: 69.9 ± 3.48 µg·mL·h | viability at 0.1 µM ([7]; compound 0.1 μM): 83.6% | viability at 0.3 µM ([7]; compound 0.3 μM): 81.3% | viability at 1 µM ([7]; compound 1 μM): 81.3%

O=C(Nc1cccc(-n2nnc3c2CCC3)n1)c1cc(-n2cnc(C3CC3)c2)ccc1OC(F)F [Example 26, 5-(4-cyclopropyl-1H-imidazol-1-yl)-2-(difluoromethoxy)-N-(6-(5,6-dihydrocyclopenta[d][1,2,3]triazol-1 (4H)-yl)pyridin-2-yl)benzamide]
remaining activity at 0.5 µM [8]: 1%
